Experimental data from patent US11214803B2, “Modulators of YAP1 expression” (Ionis Pharmaceuticals, Inc., priority 2019, dated 2022).
Strand notation (5' to 3'): a small letter for the sugar, then the base; units joined by * are phosphorothioate-linked, units joined directly phosphodiester-linked; [ ] holds rarer units or linkages, { } end groups; capitals alone tell only the bases. k = constrained ethyl (cEt); [5mC] = 5-methylcytosine; d = 2'-deoxy (DNA)

Experiments:
[1] = tested on: Yap1 mRNA; assay: Antisense inhibition of human Yap1 in A-431 cells by cEt gapmers, single dose (Example 3, RTS36584); type: cell-based
Summary of the method: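 Human epidermoid A-431 cells take up gapmer (2,000 nM, free uptake, ~48 h); Yap1 transcript is then assayed by qRT-PCR with RiboGreen normalization and reported relative to untreated cells. Gapmers carry cEt-modified wings, phosphorothioate linkages and 5-methylcytosine throughout.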

[2] = tested on: Yap1 mRNA; assay: Dose-dependent inhibition of human Yap1 in A-431 cells (Example 8, 10,000 cells per well, RTS4814); type: cell-based; details: for Yap1 mRNA, % UTC: A-431 cells, 10,000 cells per well; for IC50 / % UTC (Yap1 mRNA): A-431 cells
Summary of the method: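 Yap1 mRNA, normalized to RIBOGREEN total RNA and expressed as % untreated control, was read with RTS4814 about 48 h after free-uptake oligonucleotide treatment of A-431 cells at 10,000 cells/well. IC50 derived by linear regression of log/linear data.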

[3] = Table 26, Yap1 mRNA by 3-10-3 cEt gapmers targeting SEQ ID NO.: 1, and 2, percent of untreated control
[4] = 31.3 nM, free uptake, approximately 48 hours, RTS4814
[5] = 125.0 nM, free uptake, approximately 48 hours, RTS4814
[6] = 500.0 nM, free uptake, approximately 48 hours, RTS4814
[7] = 2000.00 nM, free uptake, approximately 48 hours, RTS4814
[8] = free uptake, approximately 48 hours, RTS4814, linear regression on log/linear plot
[9] = Table 28, Yap1 mRNA as percent of untreated control, 3-10-3 cEt gapmers targeting SEQ ID NO.: 1, and 2
[10] = Table 29, Yap1 mRNA as percent of untreated control, 3-10-3 cEt gapmers targeting SEQ ID NO.: 1, and 2
[11] = Table 35, Yap1 mRNA as percent of untreated control, 3-10-3 cEt gapmers targeting SEQ ID NO: 1 and 2, single dose
[12] = Table 27, Yap1 mRNA by 3-10-3 cEt gapmers targeting SEQ ID NO.: 1, and 2, percent of untreated control
[13] = Table 9, A-431 cells, 5,000 cells per well, free uptake, 2,000 nM, approximately 48 hours, RTS36584, normalized to RIBOGREEN, Yap1 mRNA relative to untreated control cells
[14] = Table 12, A-431 cells, 5,000 cells per well, free uptake, 2,000 nM modified oligonucleotide, approx. 48 hours, RTS36584, normalized to RIBOGREEN, Yap1 mRNA relative to untreated control cells
[15] = Table 13, A-431 cells, 5,000 cells per well, free uptake, 2,000 nM modified oligonucleotide, approx. 48 hours, RTS36584, normalized to RIBOGREEN, Yap1 mRNA relative to untreated control cells

Substance | Yap1 mRNA, % UTC [2, 4] [% UTC] | Yap1 mRNA, % UTC [2, 5] [% UTC] | Yap1 mRNA, % UTC [2, 6] [% UTC] | Yap1 mRNA, % UTC [2, 7] [% UTC] | IC50 [2, 8] [nM] | other results
1075084 (antisense kT*kG*kA*d[5mC]*dA*dA*d[5mC]*dA*dA*d[5mC]*dA*d[5mC]*dT*k[5mC]*k[5mC]*kT) [compound 1075084] | 103 | 72 | 37 | 14 | 300 | YAP1 (% UTC) [1, 3]: 9 % UTC
1074676 (antisense k[5mC]*kA*kA*dA*dT*dT*dA*dT*dA*dG*dG*d[5mC]*dA*k[5mC]*kT*k[5mC]) [compound 1074676] |  |  |  |  |  | YAP1 (% UTC) ([1]; Table 34, Yap1 mRNA as percent of untreated control, 3-10-3 cEt gapmers targeting SEQ ID NO: 1 and 2, single dose): 4 % UTC; % UTC (Yap1 mRNA) ([2]; 31.3 nM): 54 % UTC; % UTC (Yap1 mRNA) ([2]; 125.0 nM): 16 % UTC; % UTC (Yap1 mRNA) ([2]; 500.0 nM): 6 % UTC; % UTC (Yap1 mRNA) ([2]; 2000.00 nM): 5 % UTC; IC50 ([2]; Yap1 mRNA): < 20 nM
1076524 (kA*kA*kT*dT*dT*dA*dT*dA*dT*d[5mC]*dA*dG*dG*kT*k[5mC]*kA; antisense) [compound 1076524] | 71 | 30 | 12 | 7 | 100 | YAP1 (% UTC) [1, 3]: 6 % UTC
1074318 (antisense kG*kG*kA*dG*dA*dA*dT*dT*dT*dG*d[5mC]*dT*dG*kT*kG*k[5mC]) [compound 1074318] | 48 | 12 | 6 | 4 | < 20 | YAP1 (% UTC) [1, 9]: 4 % UTC
1075983 (kA*kT*k[5mC]*dG*dA*dA*dA*dA*dG*d[5mC]*dA*dA*dA*k[5mC]*kT*k[5mC]; antisense) [compound 1075983] | 81 | 46 | 17 | 6 | 100 | YAP1 (% UTC) [1, 10]: 5 % UTC
1075916 (antisense k[5mC]*kA*kA*dT*dT*dT*dA*dG*dG*dA*dT*dG*d[5mC]*k[5mC]*kT*kT) [compound 1075916] | 73 | 34 | 14 | 8 | 100 | YAP1 (% UTC) [1, 3]: 6 % UTC
1075055 (antisense k[5mC]*kT*kA*dT*dT*dA*dA*dG*dT*dG*dA*dG*d[5mC]*kT*kT*kT) [compound 1075055] | 60 | 20 | 6 | 4 | 30 | YAP1 (% UTC) [1, 10]: 4 % UTC
1076526 (kG*kT*kA*dG*dA*dA*dA*dG*dA*dT*dG*dG*d[5mC]*kT*k[5mC]*kA; antisense) [compound 1076526] | 44 | 9 | 3 | 2 | < 20 | YAP1 (% UTC) [1, 9]: 3 % UTC
1074607 (DNA kA*kA*kG*dG*dT*dA*dT*dA*dA*dT*d[5mC]*dA*dT*kG*kA*kT) [compound 1074607] | 45 | 22 | 10 | 5 | < 20 | YAP1 (% UTC) [1, 10]: 4 % UTC
1076367 (antisense k[5mC]*kT*kA*dT*dT*dT*dA*d[5mC]*dA*dT*dG*dA*dG*kA*kG*kG) [compound 1076367] | 31 | 10 | 4 | 3 | < 20 | YAP1 (% UTC) [1, 10]: 3 % UTC
1074421 (kT*kG*kA*dT*dT*d[5mC]*dT*dT*dT*dA*dG*dA*dG*k[5mC]*k[5mC]*kA; antisense) [compound 1074421] |  |  |  |  |  | YAP1 (% UTC) [1, 11]: 3 % UTC; % UTC (Yap1 mRNA) ([2]; 31.3 nM): 61 % UTC; % UTC (Yap1 mRNA) ([2]; 125.0 nM): 29 % UTC; % UTC (Yap1 mRNA) ([2]; 500.0 nM): 8 % UTC; % UTC (Yap1 mRNA) ([2]; 2000.00 nM): 5 % UTC; IC50 ([2]; Yap1 mRNA): 40 nM
1074446 (kA*kT*kG*dA*dT*dA*dG*d[5mC]*dA*d[5mC]*dT*dA*dG*kG*kA*kG; antisense) [compound 1074446] | 39 | 11 | 5 | 3 | < 20 | YAP1 (% UTC) [1, 9]: 3 % UTC
1075701 (kA*kA*kT*dT*dA*d[5mC]*dT*dA*dG*dA*dG*dG*d[5mC]*kT*kT*k[5mC]; antisense) [compound 1075701] |  |  |  |  |  | YAP1 (% UTC) [1, 11]: 3 % UTC; % UTC (Yap1 mRNA) ([2]; 31.3 nM): 84 % UTC; % UTC (Yap1 mRNA) ([2]; 125.0 nM): 34 % UTC; % UTC (Yap1 mRNA) ([2]; 500.0 nM): 11 % UTC; % UTC (Yap1 mRNA) ([2]; 2000.00 nM): 6 % UTC; IC50 ([2]; Yap1 mRNA): 100 nM
1076015 (kA*kT*kT*dT*dA*dG*dT*dT*dG*dG*dT*dT*dG*kT*kT*kA; antisense) [compound 1076015] | 70 | 37 | 15 | 9 | 100 | YAP1 (% UTC) [1, 10]: 8 % UTC
1074125 (kG*k[5mC]*kG*dG*d[5mC]*dT*dG*d[5mC]*dG*d[5mC]*d[5mC]*dT*d[5mC]*kG*kG*kG; antisense) [compound 1074125] |  |  |  |  |  | YAP1 (% UTC) [1, 12]: 94 % UTC
958721 (antisense kG*kT*kA*dG*dT*dA*dT*dA*dA*dT*dG*dA*dG*kT*kT*kA) [Compound 958721] |  |  |  |  |  | YAP1 (% UTC) [1, 13]: 1 % UTC
958806 (kT*kG*k[5mC]*d[5mC]*dT*dA*dG*dG*dG*dT*dT*d[5mC]*dT*kG*kT*kG; antisense) [Compound 958806] |  |  |  |  |  | YAP1 (% UTC) [1, 13]: 30 % UTC
958381 (antisense kT*k[5mC]*k[5mC]*dT*d[5mC]*dT*dG*d[5mC]*dG*d[5mC]*dG*d[5mC]*d[5mC]*k[5mC]*kG*k[5mC]) [Compound 958381] |  |  |  |  |  | YAP1 (% UTC) ([1]; Table 8, A-431 cells, 5,000 cells per well, free uptake, 2,000 nM, approximately 48 hours, RTS36584, normalized to RIBOGREEN, Yap1 mRNA relative to untreated control cells): 146 % UTC
958561 (kA*k[5mC]*kA*d[5mC]*dA*dG*dA*dG*dG*dT*dG*d[5mC]*dT*kA*kG*k[5mC]; antisense) [Compound 958561] |  |  |  |  |  | YAP1 (% UTC) [1, 13]: 48 % UTC
958584 (k[5mC]*k[5mC]*k[5mC]*dT*dA*dA*dG*d[5mC]*dT*dA*dA*dA*dG*k[5mC]*kT*kA; antisense) [Compound 958584] |  |  |  |  |  | YAP1 (% UTC) [1, 14]: 74 % UTC
1074190 (antisense k[5mC]*kG*kG*d[5mC]*dG*dG*dG*d[5mC]*d[5mC]*d[5mC]*dT*dG*d[5mC]*k[5mC]*k[5mC]*k[5mC]) [compound 1074190] |  |  |  |  |  | YAP1 (% UTC) [1, 9]: 114 % UTC
1074677 (antisense k[5mC]*kT*kA*d[5mC]*dT*dG*dG*d[5mC]*dA*dA*dA*dT*dT*kA*kT*kA) [compound 1074677] |  |  |  |  |  | YAP1 (% UTC) [1, 11]: 22 % UTC
958459 (antisense k[5mC]*kT*kG*dA*dA*dG*d[5mC]*d[5mC]*dG*dA*dG*dT*dT*k[5mC]*kA*kT) [Compound 958459] |  |  |  |  |  | YAP1 (% UTC) [1, 14]: 28 % UTC
958532 (kG*kA*kA*dG*dT*dA*dG*dG*dA*dG*d[5mC]*dA*dA*kG*kT*k[5mC]; antisense) [Compound 958532] |  |  |  |  |  | YAP1 (% UTC) ([1]; Table 10, A-431 cells, 5,000 cells per well, free uptake, 2,000 nM oligonucleotide, approx. 48 hours, primer probe set RTS36584, Yap1 mRNA normalized to RIBOGREEN, percent of untreated control): 2 % UTC
958730 (antisense k[5mC]*kT*k[5mC]*dT*dG*dT*d[5mC]*dA*dG*dT*dT*dA*dT*k[5mC]*k[5mC]*kT) [Compound 958730] |  |  |  |  |  | YAP1 (% UTC) [1, 15]: 4 % UTC
1076053 (kT*kA*k[5mC]*d[5mC]*dA*dA*d[5mC]*dA*dA*dG*dG*d[5mC]*dA*kT*k[5mC]*kA; antisense) [compound 1076053] |  |  |  |  |  | YAP1 (% UTC) [1, 11]: 55 % UTC
958469 (antisense kG*kG*k[5mC]*dT*d[5mC]*dT*dA*dT*dA*dA*d[5mC]*d[5mC]*dA*kT*kG*kT) [Compound 958469] |  |  |  |  |  | YAP1 (% UTC) [1, 14]: 17 % UTC
958610 (antisense kA*kG*kG*dT*dA*dA*d[5mC]*dA*dT*dT*dG*dG*dT*kA*k[5mC]*kT) [Compound 958610] |  |  |  |  |  | YAP1 (% UTC) [1, 15]: 34 % UTC
1075149 (kG*k[5mC]*kG*dG*dA*dA*dA*dA*dA*dA*d[5mC]*dA*d[5mC]*k[5mC]*kT*kA; antisense) [compound 1075149] |  |  |  |  |  | YAP1 (% UTC) [1, 12]: 50 % UTC
1074837 (kT*kA*kA*d[5mC]*dA*dA*d[5mC]*dA*dT*dG*d[5mC]*dT*dT*kG*k[5mC]*kG; antisense) [compound 1074837] |  |  |  |  |  | YAP1 (% UTC) [1, 11]: 11 % UTC
